System: GABA-A receptor
Test: 35S-TBPS binding assay on rat cerebral cortex cell membrane
Parameters: species or system Sprague-Dawley rat
Conditions: 2 nM 35S-TBPS, GABA added, read-out: 35S-TBPS bindng test, IC50 on inhibiting the TBPS binding activity
Experimental: 1.2.1 Extraction of Cerebral Cortex Cell Membrane:
1. The cerebral cortex of male Sprague-Dawley rat was isolated.
2. A pre-chilled 0.32 M sucrose solution (one tablet of protease inhibitor was added per 100 ml) was added to the cerebral cortex (the volume of sucrose solution was 10 times the volume of the cerebral cortex). The mixture was crushed with a 50 ml glass tissue homogenizer in batches and mixed well.
3. The mixture was centrifuged at 1500 g, 4° C. for 10 minutes, and the supernatant was collected.
4. The mixture was centrifuged at 20000 g, 4° C. for 30 minutes, and the supernatant was discarded.
5. The precipitate was resuspended with the pre-chilled phosphate buffer saline (PBS) (one tablet of protease inhibitor was added per 100 ml). An average of 4 ml of PBS was added per rat, and the mixture was mixed well with a glass tissue homogenizer.
6. The mixture was centrifuged at 10000 g, 4° C. for 10 minutes, and the supernatant was discarded.
7. Steps 5 and 6 were repeated three times.
8. Finally, the precipitate was resuspended with 4 volumes of PBS. The resulting solution was dispensed, frozen in liquid nitrogen, and stored at −80° C.
9. The protein concentration was measured by the bicinchoninic acid (BCA) method.
1.2.2 ^35S-TBPS Binding Assay
1. 230 μL of PBS was added to each well of a well plate with 1.1 ml volume.
2. 60 μL of the cerebral cortex cell membrane (5 μg/μL) solution was added to each well, and the mixture was mixed well.
3. The test compound (3 μL per well) was added, and the plate was incubated at 25° C. for 5 minutes. The DMSO concentration was 1%. The initial compound concentration was 1 NM, and a 3-fold dilution in gradient was carried out to obtain a total of 8 gradients and 2 replicates. 1% DMSO was used as a negative control, and 10 μM P026-2 was used as a positive control.
4. GABA was added at a final concentration of […], and incubated at 25° C. for 5 minutes. 1 mM GABA solution was formulated, and 1.5 μL of the solution was added to each well.
5. ^35S-TBPS was added at a final concentration of 2 nM. The concentration of isotope mother solution was 9.7 μM. After dilution with PBS for 100 times, 6 μL of the diluted isotope solution was added to each well.
6. The plate was incubated at 4° C. for 20 hours.
7. The FilterMate GF/C plate was pre-treated with 0.5% PEI, and incubated at 4° C. for 1 hour.
8. The FilterMate GF/C plate was washed with Universal Harvester twice, 50 ml PBS each time.
9. The reaction solution was transferred to the GF/C plate, and each well was washed 4 times with 900 μL PBS.
10. The washed GF/C plate was placed at 55° C. and dried for 10 minutes.
11. 40 μL of scintillation solution was added to each well, and the CPM value was read with TopCount.
1.2.3 Experimental Data Processing Method:
In the experiment, the CPM (counts per minute) value was read with TopCount. According to the readings of the High control (DMSO) and the Low control (10 μM of the positive compound) experimental groups, the % inhibition was calculated based on the following formula: % Inhibition=100×(CPMHigh control−CPMSample)/(CPMHigh control−CPMLow control)
The IC50 of the compound was calculated according to the following 4-parameter nonlinear logic formula: Y=Bottom+(Top−Bottom)/(1+10^((Log IC50−X)*Hill Slope)),
The effect of the compound of the present invention on the TBPS binding activity was determined by the above test, and the measured IC50 values are shown in Table 1.

Compound | IC50 [nM]
C[C@@]1(O)CC[C@@]2(F)[C@H](CC[C@H]3[C@@H]4CC[C@H](C(=O)Cn5ccc(C#N)n5)[C@@]4(C)CC[C@@H]32)C1 [Example 3, 1-(2-((3R,5R,8S,9S,10R,13S,14S,17S)-10-Fluoro-3-hydroxy-3,13-dimethylhexadecahydro-1H-cyclopenta[a]phenanthren-17-yl)-2-oxoethyl)-1H-pyrazole-3-carbonitrile] | 10.9
C[C@@]1(O)CC[C@@]2(F)[C@H](CC[C@H]3[C@@H]4CC[C@H](C(=O)Cn5nccn5)[C@@]4(C)CC[C@@H]32)C1 [Example 10, 1-((3R,5R,8S,9S,10R,13S,14S,17S)-10-Fluoro-3-hydroxy-3,13-dimethylhexadecahydro-1H-cyclopenta[a]phenanthren-17-yl)-2-(2H-1,2,3-triazol-2-yl)ethan-1-one] | 5.3
Cc1cnn(CC(=O)[C@H]2CC[C@H]3[C@@H]4CC[C@@H]5C[C@](C)(O)CC[C@]5(F)[C@H]4CC[C@]23C)c1 [Example 11, 1-((3R,5R,8S,9S,10R,13S,14S,17S)-10-Fluoro-3-hydroxy-3,13-dimethylhexadecahydro-1H-cyclopenta[a]phenanthren-17-yl)-2-(4-methyl-1H-pyrazol-1-yl)ethan-1-one] | 41.3
C[C@@]1(O)CC[C@@]2(F)[C@H](CC[C@H]3[C@@H]4CC[C@H](C(=O)Cn5nc6ccccc6n5)[C@@]4(C)CC[C@@H]32)C1 [Example 14, 2-(2H-Benzo[d][1,2,3]triazol-2-yl)-1-((3R,5R,8S,9S,10R,13S,14S,17S)-10-fluoro-3-hydroxy-3,13-dimethylhexadecahydro-1H-cyclopenta[a]phenanthren-17-yl)ethan-1-one] | 10.4
C[C@@]1(O)CC[C@@]2(F)[C@H](CC[C@H]3[C@@H]4CC[C@H](C(=O)Cn5nnc6ccccc65)[C@@]4(C)CC[C@@H]32)C1 [Example 15, 2-(1H-Benzo[d][1,2,3]triazol-1-yl)-1-((3R,5R,8S,9S,10R,13S,14S,17S)-10-fluoro-3-hydroxy-3,13-dimethylhexadecahydro-1H-cyclopenta[a]phenanthren-17-yl)ethan-1-one] | 8.7
C[C@@]1(O)CC[C@@]2(F)[C@H](CC[C@H]3[C@@H]4CC[C@H](C(=O)Cn5cc6ccncc6n5)[C@@]4(C)CC[C@@H]32)C1 [Example 16, 1-((3R,5R,8S,9S,10R,13S,14S,17S)-10-Fluoro-3-hydroxy-3,13-dimethylhexadecahydro-1H-cyclopenta[a]phenanthren-17-yl)-2-(2H-pyrazolo[3,4-c]pyridin-2-yl)ethan-1-one] | 40
C[C@@]1(O)CC[C@@]2(F)[C@H](CC[C@H]3[C@@H]4CC[C@H](C(=O)Cn5nnc6ccc(F)cc65)[C@@]4(C)CC[C@@H]32)C1 [Example 19, 2-(6-Fluoro-1H-benzo[d][1,2,3]triazol-1-yl)-1-((3R,5R,8S,9S,10R,13S,14S,17S)-10-fluoro-3-hydroxy-3,13-dimethylhexadecahydro-1H-cyclopenta[a]phenanthren-17-yl)ethan-1-one] | 15.2
C[C@@]1(O)CC[C@@]2(F)[C@H](CC[C@H]3[C@@H]4CC[C@H](C(=O)Cn5cc6c(n5)CCCC6)[C@@]4(C)CC[C@@H]32)C1 [Example 21, 1-((3R,5R,8S,9S,10R,13S,14S,17S)-10-Fluoro-3-hydroxy-3,13-dimethylhexadecahydro-1H-cyclopenta[a]phenanthren-17-yl)-2-(4,5,6,7-tetrahydro-2H-indazol-2-yl)ethan-1-one] | 36.1
C[C@@]1(O)CC[C@@]2(F)[C@H](CC[C@H]3[C@@H]4CC[C@H](C(=O)CNc5ccccc5F)[C@@]4(C)CC[C@@H]32)C1 [Example 24, 1-((3R,5R,8S,9S,10R,13S,14S,17S)-10-Fluoro-3-hydroxy-3,13-dimethylhexadecahydro-1H-cyclopenta[a]phenanthren-17-yl)-2-((2-fluorophenyl)amino)ethan-1-one] | 10.2
C[C@@]1(O)CC[C@@]2(F)[C@H](CC[C@H]3[C@@H]4CC[C@H](C(=O)CNc5cccc(F)c5)[C@@]4(C)CC[C@@H]32)C1 [Example 25, 1-((3R,5R,8S,9S,10R,13S,14S,17S)-10-Fluoro-3-hydroxy-3,13-dimethylhexadecahydro-1H-cyclopenta[a]phenanthren-17-yl)-2-((3-fluorophenyl)amino)ethan-1-one] | 6.7
C[C@@]1(O)CC[C@@]2(F)[C@H](CC[C@H]3[C@@H]4CC[C@H](C(=O)CNc5ccc(F)cc5C#N)[C@@]4(C)CC[C@@H]32)C1 [Example 27, 5-Fluoro-2-((2-((3R,5R,8S,9S,10R,13S,14S,17S)-10-fluoro-3-hydroxy-3,13-dimethylhexadecahydro-1H-cyclopenta[a]phenanthren-17-yl)-2-oxoethyl)amino)benzonitrile] | 7.5
C[C@@]1(O)CC[C@@]2(F)[C@H](CC[C@H]3[C@@H]4CC[C@H](C(=O)COc5ccc(F)cc5C#N)[C@@]4(C)CC[C@@H]32)C1 [Example 30, 5-Fluoro-2-(2-((3R,5R,8S,9S,10R,13S,14S,17S)-10-fluoro-3-hydroxy-3,13-dimethylhexadecahydro-1H-cyclopenta[a]phenanthren-17-yl)-2-oxoethoxy)benzonitrile] | 7.2
C[C@@]1(O)CC[C@@]2(F)[C@H](CC[C@H]3[C@@H]4CC[C@H](C(=O)COc5ccc(C#N)cc5F)[C@@]4(C)CC[C@@H]32)C1 [Example 31, 3-Fluoro-4-(2-((3R,5R,8S,9S,10R,13S,14S,17S)-10-fluoro-3-hydroxy-3,13-dimethylhexadecahydro-1H-cyclopenta[a]phenanthren-17-yl)-2-oxoethoxy)benzonitrile] | 11.1
C[C@@]1(O)CC[C@@]2(F)[C@H](CC[C@H]3[C@@H]4CC[C@H](C(=O)COc5ccc(C#N)cc5)[C@@]4(C)CC[C@@H]32)C1 [Example 33, 4-(2-((3R,5R,8S,9S,10R,13S,14S,17S)-10-Fluoro-3-hydroxy-3,13-dimethylhexadecahydro-1H-cyclopenta[a]phenanthren-17-yl)-2-oxoethoxy)benzonitrile] | 13.8
C[C@@]1(O)CC[C@@]2(F)[C@H](CC[C@H]3[C@@H]4CC[C@H](C(=O)COc5cc(C#N)ccc5F)[C@@]4(C)CC[C@@H]32)C1 [Example 34, 4-Fluoro-3-(2-((3R,5R,8S,9S,10R,13S,14S,17S)-10-fluoro-3-hydroxy-3,13-dimethylhexadecahydro-1H-cyclopenta[a]phenanthren-17-yl)-2-oxoethoxy)benzonitrile] | 9.3
C[C@@]1(O)CC[C@@]2(F)[C@H](CC[C@H]3[C@@H]4CC[C@H](C(=O)COc5ccc(C#N)c(F)c5)[C@@]4(C)CC[C@@H]32)C1 [Example 35, 2-Fluoro-4-(2-((3R,5R,8S,9S,10R,13S,14S,17S)-10-fluoro-3-hydroxy-3,13-dimethylhexadecahydro-1H-cyclopenta[a]phenanthren-17-yl)-2-oxoethoxy)benzonitrile] | 15.1
C[C@@]1(O)CC[C@@]2(F)[C@H](CC[C@H]3[C@@H]4CC[C@H](C(=O)COc5ccc(F)cc5F)[C@@]4(C)CC[C@@H]32)C1 [Example 36, 2-(2,4-Difluorophenoxy)-1-((3R,5R,8S,9S,10R,13S,14S,17S)-10-fluoro-3-hydroxy-3,13-dimethylhexadecahydro-1H-cyclopenta[a]phenanthren-17-yl)ethan-1-one] | 13.7
C[C@@]1(O)CC[C@@]2(F)[C@H](CC[C@H]3[C@@H]4CC[C@H](C(=O)Cn5cc(Cl)cn5)[C@@]4(C)CC[C@@H]32)C1 [Example 37, 2-(4-Chloro-1H-pyrazol-1-yl)-1-((3R,5R,8S,9S,10R,13S,14S,17S)-10-fluoro-3-hydroxy-3,13-dimethylhexadecahydro-1H-cyclopenta[a]phenanthren-17-yl)ethan-1-one] | 17
